Literature values as cited in patent US20120251478A1, “Method for treatment of a glomerular disease comprising administration of anion exchange resin” (priority 2006, published 2012).

System: apparent albuminuria
Conditions: reports, nonpatent reference 2

In the case of COc1ccc(Cl)cc1C(=O)NCCc1ccc(S(=O)(=O)NC(=O)NC2CCCCC2)cc1 [glibenclamide], the apparent albuminuria is listed as “not ameliorated”.
